In brackets after ≈: the same amount, converted by molar mass. Entries after “also recorded” stand apart in the source; their conditions may differ.
Legend:
HT-1080 (sarcoma) = assay: Cytotoxicity against cultured human cancer cells (SRB); format: cell-based; conditions: Homo sapiens, HT-1080, 72 h, three days incubation, read-out: ED50 HT-1080
Experimental: (§1) The plates were incubated for three days. […] Dose response studies were performed to generate ED50 values.

LNCaP (prostate) = assay: as above; format: cell-based; conditions: Homo sapiens, LNCaP, 72 h; three days incubation, SRB; read-out: ED50 LNCaP
Experimental: as §1

BC-1 (breast) = assay: as above; format: cell-based; conditions: Homo sapiens, 72 h; three days incubation, SRB; read-out: ED50 BC-1
Experimental: as §1

LU-1 (lung) = assay: as above; format: cell-based; conditions: Homo sapiens, 72 h, three days incubation, read-out: ED50 LU-1
Experimental: as §1

ZR-75-1 (breast) = assay: as above; format: cell-based; conditions: Homo sapiens, ZR-75-1, 72 h; three days incubation, SRB; read-out: ED50 ZR 75-1
Experimental: as §1

U373 (glioma) = assay: as above; format: cell-based; conditions: Homo sapiens, U373 MG, 72 h; three days incubation, SRB; read-out: ED50 U373
Experimental: as §1

COL-2 (colon) = assay: as above; format: cell-based; conditions: Homo sapiens, Col2, 72 h; three days incubation, SRB; read-out: ED50 COL-2
Experimental: as §1

[1] = tested on: KB (human oral epidermoid carcinoma); assay: as above; format: cell-based
Experimental: as §1

A431 (squamous cells) = assay: as above; format: cell-based; conditions: Homo sapiens, A-431, 72 h; three days incubation, SRB; read-out: ED50 A431
Experimental: as §1

[2] = tested on: Walker 256 murine carcinosarcoma; conditions: cited from earlier work
UISO MEL-1 cells = assay: In vivo activity against MEL-1 tumors in athymic mice; conditions: 5, 50 or 250 mg/kg/dose IP betulinic acid/PVP every fourth day, six doses
Experimental: In particular, with respect to FIGS. 4 and 5, four week old athymic mice were injected subcutaneously in the right flank with 5.0×10^8 UISO MEL-1 cells. Drug treatment was initiated on the day following tumor cell injection and continued every fourth day for a total of six doses. Four control animals received 0.5 ml intraperitoneal (IP) saline, while treated animals (4 per group) received 5, 50 or 250 mg/kg/dose IP betulinic acid/PVP in dd H2O. The mice were weighed, and tumors were measured with a micrometer every third day throughout the study. Treated animals were sacrificed and autopsied on day 41, when the mean tumor volume in the control mice was approximately 0.5 cm^3. The control mice then received six doses of 50 mg/kg every fourth day beginning day 41 and were sacrificed and autopsied on day 71.

[3] = tested on: human melanoma cells (MEL-2); assay: In vivo activity against unestablished MEL-2 tumors in athymic mice; design: species or system athymic (nude) mice
Experimental: To test the in vivo ability of betulinic acid to serve as an antineoplastic agent against malignant melanoma, a series of studies was performed with athymic (nude) mice injected subcutaneously with human melanoma cells (MEL-2). The initial study investigated the activity of betulinic acid against unestablished tumors. Treatment with betulinic acid began on day 1, i.e., 24 hours, following tumor cell injection. […] Such a discovery is important for individuals who are predisposed to melanoma due to hereditary or environmental factors.
In particular, the data plotted in FIG. 1 was derived from experiments wherein four week old athymic mice were injected subcutaneously in the right flank with 3.0×10^8 UISO MEL-2 cells. UISO MEL-2 is a cell line derived from metastatic melanoma from human pleural fluid. Drug treatment was initiated on the day following tumor cell injection and continued every fourth day for a total of six doses. Four control animals received 0.5 ml intraperitoneal (IP) of PVP control solution, while treated animals (4 per group) received 50, 250 or 500 mg/kg/dose IP betulinic acid/PVP in deionized H2O. Betulinic acid was coprecipitated with PVP to increase solubility and bioavailability. The mice were weighed, and the tumors measured with a micrometer every other day throughout the study. […]

MEL-6 melanoma cell line = assay: Cytotoxicity of betulinic acid derivatives; format: cell-based, human; conditions: Tables 2-6
Experimental: as §1

MEL-8 melanoma cell line = assay: Cytotoxicity of betulinic acid derivatives; format: cell-based, human; conditions: Tables 2-6
Experimental: as §1

LOX melanoma cell line = assay: Cytotoxicity of betulinic acid derivatives; format: cell-based, human; conditions: Tables 2-6
Experimental: as §1

[4] = tested on: MALE-3M melanoma cell line; assay: Cytotoxicity of betulinic acid derivatives; format: cell-based, human; conditions: Tables 2-6
Experimental: as §1

[5] = tested on: human melanoma cells (MEL-2); assay: In vivo activity against established MEL-2 melanomas in athymic mice; conditions: treatment from day 13, IP every third day; betulinic acid/PVP 250 mg/kg/dose, DTIC 4 mg/kg/dose
Experimental: Next, in vivo testing of betulinic acid was performed on established melanomas. In this study, treatment was withheld until day 13, by which time a palpable tumor mass was present in all mice.
In particular, with respect to FIG. 2, four-week-old athymic mice were injected with 5×10^8 MEL-2 cells subcutaneously in the right flank. Four treatment groups of five mice each were studied. In one group, the mice received 250 mg/kg/dose of IP betulinic acid/PVP every third day for six total doses initiated the day following tumor cell injection. The control group received 0.5 ml IP saline. A DTIC treatment group received 4 mg/kg/dose IP DTIC every third day from day 13 to day 28 of the study. The betulinic acid treatment group received 250 mg/kg/dose IP betulinic acid/PVP every third day from day 13 to day 27. The control and DTIC-treated mice were sacrificed and autopsied on day 36 due to their large tumor burden. The remaining mice were sacrificed and autopsied on day 41.

MEL-2 (melanoma) = assay: Cytotoxicity against cultured human melanoma cells (SRB); format: cell-based
Experimental: as §1

[6] = 200 and 400 mg/kg doses; cited from earlier work
[7] = tested on: human melanoma and nonmelanoma cancer cell lines; assay: Cytotoxicity profile across the panel of human cancer cell lines; conditions: all Table 1 cell lines other than MEL-2
Experimental: In the following Table 1, the extracted betulinic acid and the other pure compounds were tested for cycotoxity against the following cultured human cell lines: A431 (squamous cells), BC-1 (breast), COL-2 (colon), HT-1080 (sarcoma), KB (human oral epidermoid carcinoma), LNCaP (prostate), LU-1 (lung), MEL-2 (melanoma), U373 (glioma) and ZR-75-1 (breast).
Cytotoxicity of the crude extracts and purified compounds was determined in a number of cultured human cancer cell lines. The cells were cultured in appropriate media and under standard conditions. To maintain logarithmic growth, the media were changed 24 hours prior to cytotoxic assays. On the day of the assay, the cells were harvested by trypsinization, counted, diluted in media, and added to 96-well plates containing test compounds dissolved in DMSO; the final DMSO concentration was 0.05%.
The plates were incubated for three days. Following the incubation period, the cells were fixed and stained with sulforhodamine B (SRB) dye. The bound dye was liberated with Tris base, and the OD515 was measured on an ELISA reader. The growth of the betulinic acid-treated cells was determined by the OD515 values, and the growth was compared to the OD515 values of DMSO-treated control cells. Dose response studies were performed to generate ED50 values.
The biological evaluation of the derivatives focused on the activity against human melanoma cell lines. In particular, the following betulinic acid derivatives were prepared and tested for cytotoxicity profile against human melanoma cell lines and against a number of selected nonmelanoma cell lines.

Solubility in water = format: physicochemical; conditions: listed as betulinic acid

C=C(C)[C@@H]1CC[C@]2(C(=O)O)CC[C@]3(C)[C@H](CC[C@@H]4[C@@]5(C)CC[C@H](O)C(C)(C)[C@@H]5CC[C@]43C)[C@@H]12 [Compound 10, 3β-hydroxy-lup-20(29)-ene-28-oic acid]
IC50 (HT-1080 (sarcoma)): > 20 µg/mL | IC50 (LNCaP (prostate)): > 20 µg/mL | IC50 (BC-1 (breast)): > 20 µg/mL | IC50 (LU-1 (lung)): > 20 µg/mL | IC50 (ZR-75-1 (breast)): > 20 µg/mL | IC50 (U373 (glioma)): > 20 µg/mL | IC50 (COL-2 (colon)): > 20 µg/mL | IC50 ([1]; Homo sapiens, 72 h, three days incubation, SRB, Table 1, read-out: ED50 KB): > 20 µg/mL | ED50 (Std. Dev.) KB ([1]; derivatives, Tables 2-6): >20 µg/mL | IC50 (A431 (squamous cells)): > 20 µg/mL | antitumor activity, Walker 256, subsequent report ([2]; 400 mg/kg): inactive | antitumor activity, Walker 256 ([2]; 300 and 500 mg/kg body weight): dose-dependent activity | activity against MEL-1 tumors (FIGS. 4 and 5) (UISO MEL-1 cells): showed activity against MEL-1 cells | tumor development, MEL-2, treatment from the day following cell injection (FIG. 2) ([3]; 250 mg/kg/dose IP betulinic acid/PVP every third day, six doses, p=0.0001): significantly inhibited tumor development | inhibition of tumor growth, nonestablished MEL-2 tumors (FIG. 1) ([3]; 50, 250, 500 mg/kg/dose IP as betulinic acid/PVP, every fourth day, six doses from day 1, p 0.001 each dose versus control): effective inhibition of tumor growth; also recorded: greater inhibition of tumor growth at the highest dose | ED50 (Std. Dev.) MEL-6 (MEL-6 melanoma cell line): 13.2 (1.5) μg/mL | ED50 (Std. Dev.) MEL-8 (MEL-8 melanoma cell line): 1.0 (0.3) μg/mL | ED50 (Std. Dev.) LOX (LOX melanoma cell line): >20 µg/mL | ED50 (Std. Dev.) MALE-3M [4]: 17.6 (0.5) μg/mL | tumor growth, established MEL-2 tumors (FIG. 2) [5]: successfully abrogated tumor growth; also recorded: significantly less than that observed in the DTIC-treated animals | IC50 (MEL-2 (melanoma); Homo sapiens, MEL2, 72 h, three days incubation, SRB, Table 1 and text, read-out: ED50 MEL-2): ~2 µg/mL (≈ 4.38 µM) | ED50 (Std. Dev.) MEL-2 (MEL-2 (melanoma); derivatives, Tables 2-6): 1.2 (0.1) μg/mL | ED50 MEL-2 (MEL-2 (melanoma); three days incubation, SRB, Table 1 and text, listed as Betulinic acid): 2.0 µg/mL (≈ 4.38 µM) | activity in Hippocratic screen [6]: inactive | ED50, other cancer cell lines tested [7]: greater than 20 μg/ml | solubility in water (Solubility in water): poor solubility in water; also recorded: low water solubility
